Where a SMILES comes first, the peptide text is derived from it. Bridges are numbered along the chain shown (N, C = ends).
Key:
[1] = tested on: coagulation factors of the intrinsic and common pathways of coagulation; assay: Coagulation assay initiated by contact activation (Cephotest); conditions: all coagulation factors other than TF/FVII
From the text: The effect of the peptides observed in the coagulation assay could conceivably have been due to effects on another one or more of the several components contributing to the coagulation cascade. This possibility was therefore tested by adding the peptides to coagulation assays which were initiated by contact activation (Cephotest™, Nycomed), and therefore involved coagulation factors of the intrinsic and common pathways of coagulation, i.e. all coagulation factors other than TF/FVII. […] Thus evidence was obtained that the effects observed in the TF/FVII initiated coagulation assay above were in fact due to a direct effect on the TF/FVII complex.

[2] = target: binding of Factor VII to tissue factor (Homo sapiens, UniProt P13726); assay: Inhibition of FVII/TF binding or FVII activity, assay not specified (summary statements)
[3] = target: Factor VII and tissue factor (Homo sapiens, UniProt P13726); conditions: Corvas Inc., Table 1 of WO90/03390; cited from earlier work
[4] = target: FVII binding to immobilized rTF (Homo sapiens, UniProt P13726); assay: ELISA assay of inhibition of FVII binding to immobilized rTF; conditions: for inhibition at 500 µM: peptide 0.5 mM
Experimental: FIG. 13 ELISA assay of the inhibition of FVII binding to immobilized rTF produced by synthetic FVII peptides (all at 0.5 mM). For peptide sequences see the table of peptides below (page 19). C and L denote the cyclic and linear forms respectively of peptides with terminal cysteines.
The inhibition results shown in FIG. 13 indicate that in addition to sequences from the "hinge" region (i.e. residues 41-48 between the GLA domain and the first EGF domain, […]) and from the first EGF domain itself (i.e. residues 50-61; Clarke et al), there exist additional sequences in the second EGF domain (especially 95-104) which are inhibitors when presented as peptides in this binding assay.

[5] = target: T1, tissue factor (TF) expressed on the surface of living cells (Homo sapiens, UniProt P13726); assay: Assay of cell-surface TF initiated coagulation of plasma (microcarrier coagulation assay); assay type: cell-based; conditions: peptide 0.5 mM
T1 construct: induced by tissue factor (TF) expressed on the surface of living cells; endogenous in cells; host or cells: living cells on Cytodex-3 microcarriers (e.g. human HT-1080 or ECV-304)
Experimental: FIGS. 9A-9C Principle of the microcarrier assay of cell-surface mediated coagulation of blood plasma. Living cells (e.g., human HT-1080 fibrosarcoma; ATCC CRL 121) adherent on the surface of microcarriers are mixed with a calcium-containing buffer and plasma in the incubation well of a Thrombotrack™ electromagnetic coagulometer (Nycomed). The clotting time is measured by the increase in resistance to movement of a magnetic ball produced by the formation of fibrin fibres. HT-1080 cells adherent on Cytodex-3 microcarriers are shown in FIG. 9C as an example of the types of cells expressing TF which may be used.
Assay of Cell-surface TF Initiated Coagulation of Plasma
A novel assay system has been devised to measure the coagulation of blood plasma (i.e. clotting time) induced by tissue factor (TF) expressed on the surface of living cells. This assay makes use of human or animal cells adherent on the surface of microcarriers (see FIG. 9), which enables reproducible presentation of known amounts of TF activity in the stirred measuring well of an electromagnetic coagulometer. The cells used may be normal or transformed, and representing phenotypes such as monocytes, endothelium, fibroblasts etc (see FIG. 10).
This novel assay has been particularly developed and characterised so as to be highly useful in determining the effect of synthetic peptides and peptidomimetic compounds on the extrinsic pathway of coagulation, using living cells in a plasma milieu. Results for the inhibitory effect of synthetic peptides based upon the amino acid sequence of human FVII are disclosed.
The microcarrier cell preparation is made as follows. Cells obtained from primary isolates or subcultures of transformed lines (see FIG. 10) are suspended in a small volume of serum-containing medium and mixed with microcarriers (Cytodex-3, Pharmacia) in a ratio of about 50-100 cells/microcarrier. The cells are usually adhere nt on the microcarriers within 2 hours, and can then be transferred to normal roller bottles with a larger volume of culture medium. Uniform coverage of microcarriers with about 20-60 cells can be obtained directly with transformed cells, when large cell numbers are available, or after 2 days growth when primary cultures (e.g. umbilical vein endothelial cells) are used. […]
To assay the extrinsic coagulation activity, the microcarrier cell preparations are first washed with a calcium-free buffer to remove bound serum factors. A calcium-containing buffer and plasma are then added and the clotting time is determined automatically in an electromagnetic coagulometer. […]

[6] = target: T2, purified human FVIIa bound to recombinant human TF (apoTF/FVIIa) (Homo sapiens, UniProt P13726); assay: Assay of apoTF/FVIIa catalytic (amidolytic) activity; assay type: biochemical; conditions: for IC50: read-out: IC50, Amidolytic apo TF Assay
T2 construct: purchased American Diagnostica (TF); Enzyme Research Laboratories (FVIIa) 4500 (TF); HFVlla (FVIIa)
Experimental: Assay of apoTF/FVIIa Catalytic Activity
This […] assay was used to measure directly the amidolytic (catalytic) activity of purified human FVIla when bound to recombinant human TF in the absence of phospholipid.
Reactions were performed in microtitre plate wells, using a final incubation volume of 200 uL. Test compounds, dissolved in water, (final concentration, 0-1 mM) were preincubated with recombinant human tissue factor (American Diagnostica, cat# 4500; 5 nM) and CaCl2 (5 mM) in Tris buffer (100 mM), pH 7.2, containing NaCl (150 mM) and BSA (1 mg/mL) at ambient temperature for 30 minutes. Factor Vlla (Enzyme Research Laboratories, cat# HFVlla; 5 nM) was added and the incubations continued for 60 minutes. Chromogenic substrate, S2288 (Chromogenix cat# 820852; 0.5 mM) was then added and the enzymatic activity of the tissue factor apoprotein/factor VII complex (apoTF/FVlla) was monitored at 405 nm.

[7] = target: T3, native TF/FVIIa complex on the surface of HT-1080 cells (Homo sapiens, UniProt P13726); assay: Assay of HT1080 cell surface TF/FVIIa mediated activation of FX (amidolytic microcarrier assay); assay type: cell-based
T3 construct: native TF/FVIIa complex on the surface of living cells expressing TF in their cell membrane; endogenous in cells; host or cells: HT-1080 human fibrosarcoma cells on Cytodex-3 microcarriers

FVIIa/TF = target: T4, FVIIa/TF (Homo sapiens, UniProt P13726); assay: Kinetics of inhibition of FX activation (assay of FVIIa/TF activity); assay type: biochemical; conditions: varying FVII-5 and Factor X concentrations
T4 construct: purchased Behringwerk (TF, Thromborel); Diagnostica Stago (FVIIa)
Experimental: Peptides (0-1 mM) were preincubated in 0.1 M Tris.HCl pH 7.2 with tissue factor (Thromborel®, Behringwerk, Marburg, Germany; 0.2% final concentration) at 22° C. for 30 minutes, then Factor X (American Diagnostica Inc., Greenwich, Conn. USA; 70 nM was added followed by FVIIa (Diagnostica Stago, Asnieres, France; 8 pM and CaCl2 (5 mM). Incubations were continued for 30 minutes and quenched with EDTA (50 mM) which removes essential Ca^2+. The FXa produced was quantified by monitoring hydrolysis of the chromegenic FX substrate S-2222 (Chromogenix,Molndal, Sweden).
The kinetics of inhibition of FX activation by FVII-5 was investigated. Varying concentrations of FVII-5 were incubated with different concentrations of Factor X in the presence or absence of TF and FVIIa.

binding of Factor VII to tissue factor, sequence (P13726 33-295): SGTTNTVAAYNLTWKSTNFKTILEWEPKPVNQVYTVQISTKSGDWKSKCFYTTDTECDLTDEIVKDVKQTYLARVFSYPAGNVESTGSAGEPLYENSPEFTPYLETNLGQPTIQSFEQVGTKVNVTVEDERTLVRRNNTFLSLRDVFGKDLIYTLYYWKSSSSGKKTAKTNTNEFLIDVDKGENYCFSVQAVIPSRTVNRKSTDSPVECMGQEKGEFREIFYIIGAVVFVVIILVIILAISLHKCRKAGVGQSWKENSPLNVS
FVII binding to immobilized rTF, sequence (P13726 33-295): as above
T1 sequence (P13726 33-295): as above
Factor VII and tissue factor, sequence (P13726 33-295, species assumed): as the sequence (P13726 33-295) above
T2 sequence (P13726 33-295): as above
T3 sequence (P13726 33-295, one chain of several): as the sequence (P13726 33-295) above
T4 sequence (P13726 33-295): as above

Molecule | Effect on contact-activated coagulation (specificity) [1] | Inhibitory activity, in words [2] | Inhibition of activation of Factor X by Factor VII and tissue factor as reported in WO90/03390 [3] | inhibition at 500 µM [5] [%] | also measured
Hirudin [reference compound] | strongly inhibitory |  |  |  | 
SDHTGTKRSC [reference compound] |  | only moderate activity | active |  | Inhibitor of the binding of Factor VII to tissue factor, in words [2]: rather poor inhibitor
CC(C)C[C@@H]1NC(=O)[C@@H](N)CSSC[C@@H](C(=O)O)NC(=O)[C@H](CC(N)=O)NC(=O)[C@H](CCCNC(=N)N)NC(=O)CNC(=O)[C@H](CCC(=O)O)NC(=O)[C@H](Cc2ccccc2)NC(=O)[C@H](C)NC(=O)[C@@H]2CCCN2C1=O [72-81(C)] |  |  |  | 22 | inhibition at 500 µM [4]: 89%
CHEGYSLLADGVSC [114-127, FVII residues 114-127] |  | relatively active | zero inhibitory acticity |  | 
Ac-SDHTGTKRS-NH2 [103-111] | inactive |  |  | 30 | IC50 [6]: 2.2 mM; IC50 ([7]; HT-1080 cells on microcarriers): 0.87 mM; inhibition at 500 µM [4]: 59%
CLPAFEGRNC [72-81] |  |  | zero inhibitory acticity |  | Synergistic enhancement of the inhibitory action of peptides of the sequence 91 to 104 ([2]; in combination): acted synergistically
NGGCEQYCSD [95-104, FVII residues 95 to 104] | inactive | most active inhibitor so far tested |  |  | Inhibition of FVII binding to rTF, in words ([4]; peptides at 0.5 mM (FIG. 13)): inhibitors
CC(C)[C@@H]1NC(=O)[C@@H](N)CSSC[C@@H](C(=O)O)NC(=O)[C@H](Cc2ccc(O)cc2)NC(=O)[C@H](CCC(N)=O)NC(=O)[C@H](CCC(=O)O)NC(=O)[C@H](CS)NC(=O)CNC(=O)CNC(=O)[C@H](CC(N)=O)NC(=O)[C@H](CCC(=O)O)NC(=O)[C@H](CC(N)=O)NC1=O [91-102(C)] (H-CVNENGGCEQYC-OH; disulfide 1-12 (inferred)) |  |  |  |  | Mode of inhibition of Factor X activation (FVIIa/TF): noncompetitive inhibition
CC(C)C[C@@H]1NC(=O)[C@H](CC(C)C)NC(=O)[C@H](CO)NC(=O)[C@H](Cc2ccc(O)cc2)NC(=O)CNC(=O)[C@H](CCC(=O)O)NC(=O)[C@H](Cc2c[nH]cn2)NC(=O)[C@@H](N)CSSC[C@@H](C(=O)O)NC(=O)[C@H](CO)NC(=O)[C@H](C(C)C)NC(=O)CNC(=O)[C@H](CC(=O)O)NC(=O)[C@H](C)NC1=O [114-127(C)] (H-CHEGYSLLADGVSC-OH; disulfide 1-14) |  |  |  | 44 | inhibition at 500 µM ([6]; peptide 0.5 mM, did not reach near-quantitative inhibition at 1 mM, read-out: % inhibition at 0.5 mM, Amidolytic apo TF Assay): 21%; inhibition at 500 µM [4]: 77%
TAP: tick anticoagulant polypeptide; control inhibitor of FX (YNRLCIKPRDWIDECDSNEGGERAYFRNGKGGCDSFWICPEDHTGADYYSSYRDCFNACI; UniProt P17726 1-60, looked up) [reference compound] | strongly inhibitory |  |  |  | Inhibition of FXa amidolytic activity generated by HT-1080 cell-surface TF/FVIIa ([7]; HT-1080 cells): inhibition of activity
CC(C)[C@H](NC(=O)[C@@H](N)CS)C(=O)N[C@@H](CC(N)=O)C(=O)N[C@@H](CCC(=O)O)C(=O)N[C@@H](CC(N)=O)C(=O)NCC(=O)NCC(=O)N[C@@H](CS)C(=O)N[C@@H](CCC(=O)O)C(=O)N[C@@H](CCC(N)=O)C(=O)N[C@@H](Cc1ccc(O)cc1)C(=O)N[C@@H](CS)C(=O)O [91-102(L)] (H-CVNENGGCEQYC-OH; N-terminus and C-terminus assumed) |  |  |  | 14 | IC50 [6]: 1.14 mM; IC50 [4]: 0.06 mM
CVNENGGCEQYC [91-102, FVII residues 91-102] | inactive | particularly active | zero inhibitory acticity |  | 

Reference: patent US5962418A, “Factor VII-derived peptides” (Nycomed Imaging A/S, priority 1993, dated 1999)
